Patent US20230013227A1, “ARYL-ANILINE AND HETEROARYL-ANILINE COMPOUNDS FOR TREATMENT OF BIRTHMARKS” (NFlection Therapeutics, Inc., priority 2018, published 2023)
Like-named read-outs stand apart in the source and are kept apart here.

What was measured:
MEK1 = molecular target: T1, MEK1 (Homo sapiens, UniProt Q02750); experiment: MEK Inhibition Assay-1 (Example 2): 33P-ATP, P81 filter-binding kinase assay; conditions: read-out: Assay 1: biochemical MEK IC50
T1 construct: N-terminal His-tagged recombinant human full length protein; purchased Invitrogen PV3303; host or cells: insect cells
Description: The following procedure can be used to measure biochemical activity. MEK1 inhibitory activity of compounds were tested using the following procedure. […] Nat Biotechnoi 2011, 29(11), 1039-45.
• Reaction buffer: 20 mM Hepes (pH 7.5), 10 mM MgCl2, 1 mM EGTA, 0.02% Brij35, 0.02 mg/mL BSA, 0.1 mM Na3VO4, 2 mM DTT, 1% DMSO • Enzyme: MEK1, Invitrogen cat #PV3303 • N-terminal His-tagged recombinant human full length protein, expressed in insect cells. Activated in vitro by RAF1. MW=49.2 kDa, GenBank Accession No. NP_002746. • Substrate: 5 μM ERK2 (K52R), • Kinase-dead mutant, (GenBank Accession No. NM_0011949), aa2-358 with N-terminal His6 tag, MW=43.63 kDa, expressed in E. coli.
The substrate was prepared in freshly prepared Reaction Buffer. The kinase was delivered into the substrate solution and gently mixed. Test compounds were delivered in 100% DMSO into the kinase reaction mixture by Acoustic technology (Echo550; nanoliter range), and incubated for 20 min at room temperature. ^33P-ATP was delivered into the reaction mixture to initiate the reaction. The reaction mixture was incubated for 2 hours at room temperature. Kinase activity was detected by P81 filter-binding method.

A375 cells = experiment: Cell-Based Assay-2 (Example 5): Cell Titer-Glo viability, A375 (BRAF) GI50; conditions: Homo sapiens, A-375; Table 8, compounds of formula (II); 72 hours
Description: (§1) Alternatively, the following procedure can be used to measure cell-based activity. Test compounds were dissolved in DMSO in 10 mM stock. Cell Titer-Glo® 2.0 Luminescent cell viability assay reagent was purchased from Promega (Madison, Wis.). A375 and HCT116 cell lines were purchased from American Type Culture Collection (Manassas, Va.). For A375 cells, cell culture media was DMEM+10% FBS. For HCT116 cells, cell culture media was McCoy's 5A+10% FBS. All media were supplemented with 100 μg/mL of penicillin, and 100 μg/mL of streptomycin. Cultures were maintained at 37° C. in a humidified atmosphere of 5% CO2 and 95% air.
(§2) Test compounds were diluted in DMSO solution with 10-dose and 3-fold dilutions in a source plate starting at 10 mM. […] Luminescence was recorded by Envision 2104 Multilabel Reader (PerkinElmer, Santa Clara, Calif.). The number of viable cells in culture was determined based on quantitation of the ATP present in each culture well. […] Luminescence was recorded by Envision 2104 Multilabel Reader (PerkinElmer, Santa Clara, Calif.). The number of viable cells in culture was determined based on quantitation of the ATP present in each culture well. […] All parameters in the equation were calculated by GraphPad Prism 4 program. […] Accordingly, GI50 is the value of 10^X, where X was calculated by the Curve Fitting Equation when Y=50 using Excel.

HCT116 cells = experiment: Cell-Based Assay-2 (Example 5): Cell Titer-Glo viability, HCT116 (Kras) GI50; conditions: Homo sapiens, HCT-116; Table 8, compounds of formula (II); 72 hours; read-out: Assay 3: HCT116 (Kras) GI50
Description: as §1, §2

[1] = systemic exposure, background statement; cited from earlier work
MAP2K1 (MEK1) = molecular target: T2, MAP2K1 (MEK1) (Homo sapiens, UniProt Q02750); experiment: MEK Inhibition Assay-2 (Example 3): Z'-LYTE biochemical assay; conditions: Table 6; procedure of Example 3; read-out: IC50 against MEK1
T2 construct: purchased ThermoFisher
Description: MEK1 inhibitory activity of compounds were tested using the following procedure (protocol available at thermofisher.com/content/dam/LifeTech/migration/files/drug-discovery/pdfs.par.60256.file.dat/20130430%20ssbk%20customer%20protocol%20and%20assay%20conditions.pdf). The Z′-LYTE biochemical assay (ThermoFisher) employs a fluorescence-based, coupled-enzyme format and is based on the differential sensitivity of phosphorylated and non-phosphorylated peptides to proteolytic cleavage.
Test compounds in 100% DMSO were screened in 1% DMSO (final) in the well. For 10 point titrations, 3-fold serial dilutions are conducted from the starting concentration of 30 μM.
After the 1 hour incubation, 5 μL of a 1:1024 dilution of Development Reagent A (available from Invitrogen, catalog no. PV3295) was added.
ATP solutions were diluted to a 4× working concentration in Kinase Buffer (50 mM HEPES pH 7.5, 0.01% BRIJ-35, 10 mM MgCl2, 1 mM EGTA). ATP Km apparent was previously determined using a Z′-LYTE assay. The Development Reagent was diluted in Development Buffer (available from Invitrogen, catalog no. P3127).
Assay Protocol: 2.5 μL of 4× test compound or 100 nL of 100× Test Compound plus 2.4 μL Kinase Buffer, 5 μL of the 2× Peptide/Kinase Mixture, 2.5 μL of 4×ATP Solution were added to the plates and placed on a shake plate for 30-seconds. The kinase reaction was allowed to proceed for 60-minute at room temperature, before 5 μL of Development Reagent Solution was added, and the mixture agitated for 30-seconds on a shake plate. The mixture was incubated for 60-minute at room temperature. Fluorescence was measured using a plate reader and the data were analyzed.
This control yielded 100% cleaved peptide in the Development Reaction. The 100% Phosphorylation Control, which consisted of a synthetically phosphorylated peptide of the same sequence as the peptide substrate, was designed to allow for the calculation of percent phosphorylation. This control yielded a very low percentage of cleaved peptide in the Development Reaction. The 0% Phosphorylation and 100% Phosphorylation Controls allow for the calculation of the percent phosphorylation achieved in a specific reaction well.
The minimum emission ratio in a screen was established by the 0% Inhibition Control, which contained active kinase. This control was designed to produce a 10-50% phosphorylated peptide in the Kinase Reaction. Cascade assays may produce up to 70% phosphorylated peptide.
A known inhibitor control standard curve, 10 point titration, was run for each individual kinase on the same plate as the kinase to ensure the kinase was inhibited within an expected IC50 range previously determined.
The following controls are prepared for each concentration of Test Compound assayed. […] The expected value for a non-interfering compound should be 100%. Any value outside of 90% to 110% was flagged. […] The expected value for a non-fluorescence compound should be 0%. Any value >20% was flagged.
The data in Table A was calculated. XLfit from IDBS was used. The dose response curve was curve fit to model number 205 (sigmoidal dose-response model).

p-ERK = experiment: Human birthmark explant protocol (Example 1): p-ERK in nevus sebaceous explants; format: cell-based; conditions: topical gel
Text: Study Objectives: The primary objective was to assess the efficacy of a topically-formulated compound described herein in suppressing p-ERK, a downstream biomarker of RAS/MAPK signaling in epidermal nevus and nevus sebaceous. The secondary objectives was to assess permeability (where the compound was applied topically) in birthmark explants treated with a compound described herein.
Sample Collection and Eligibility: Discarded human birthmark (epidermal nevus and nevus sebaceous) samples were obtained from the Stanford Surgery Clinic, using an approved human subjects protocol (Stanford IRB #18325). Specimens were identified under the direction of the Principal Investigator and placed in cell proliferation media (DMEM/F12 containing penicillin/streptomycin (0.1%); fungizone (40 μg/mL); B27 (without vitamin A).
Samples were primary, untreated birthmarks of at least 6 mm in size; samples were excised by a shave, punch biopsy or elliptical excision. Specimens were identified under the direction of the Principal Investigator. Specimens were chopped into 2 mm fragments and placed in 24-well plates containing cell proliferation media (DMEM/F12 containing penicillin/streptomycin (0.1%); fungizone (40 μg/mL); B27 (without vitamin A) and submerged in media with drug. For topical gel application, samples were placed in 96 well plates with epidermal surface exposed to air.
For the data provided in FIGS. 3 and 4, a gel topical gel formulation of Trametinib, Compound No. 2.003, Compound No. 4.029, or the gel topical formulation of vehicle only were topically applied to the surface of a birthmark explant at 4 hours for analysis. The gel formulation was 1% hydroxypropyl cellulose in DMSO/PEG 400 1:1 (v/v) and the tested compound was 1% by weight in the gel formulation. Samples were harvested at 4 hours for analysis. Harvested tissue was bisected and with half snap frozen and half fixed in 10% formalin and paraffin embedded for further analysis.
For the data provided in FIG. 5, a gelled topical gel formulation of Compound 2.003 or the gel topical formulation of vehicle only were topically applied to the surface of a birthmark explant at 4 hours for analysis. The gel formulation was 1.5% hydroxypropyl cellulose in the base formulation and the tested compound was 0.01% by weight of the base formulation. The Compositions of the base formulation are listed below. Samples were harvested at 4 hours for analysis. Harvested tissue was bisected and with half snap frozen and half fixed in 10% formalin and paraffin embedded for further analysis.
For the data provided in FIG. 6, three gelled topical gel formulations of Compound 2.003 at different concentrations or the gel topical formulation of vehicle only were topically applied to the surface of a birthmark explant at 4 hours for analysis. […]

[2] = FIGS. 3 and 4, 1% by weight compound, 1% hydroxypropyl cellulose in DMSO/PEG 400 1:1, 4 hours

T1 sequence (Q02750 whole entry): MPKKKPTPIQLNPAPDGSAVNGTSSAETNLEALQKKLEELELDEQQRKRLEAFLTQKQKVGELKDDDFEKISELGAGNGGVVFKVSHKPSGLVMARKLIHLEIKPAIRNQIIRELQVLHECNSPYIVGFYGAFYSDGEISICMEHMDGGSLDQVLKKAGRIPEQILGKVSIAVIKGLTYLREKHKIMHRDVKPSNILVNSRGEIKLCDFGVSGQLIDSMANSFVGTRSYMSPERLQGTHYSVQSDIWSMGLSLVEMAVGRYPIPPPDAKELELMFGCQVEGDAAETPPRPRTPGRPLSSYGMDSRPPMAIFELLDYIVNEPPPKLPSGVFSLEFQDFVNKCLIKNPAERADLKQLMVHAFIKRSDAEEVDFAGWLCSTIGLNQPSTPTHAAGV
T2 sequence (Q02750 whole entry): as above

Compound `Cn1c(Nc2ccc(I)cc2F)c(C(=O)NOC[C@@H](O)CO)c2cccnc21` [Compound 2.006] has an IC50 (MEK1; Table 8, compounds of formula (II), tested by Example 2) of 0.371 µM, a GI50 (A375 cells) of 0.081 µM and a GI50 (HCT116 cells) of 0.448 µM.

In the case of `O=C(NOC[C@H](O)CO)c1ccc(F)c(F)c1Nc1ccc(I)cc1F` [PD0325901], the “side effects of a clinically-tested MEK inhibitor” value [1] is given as “neurological side effects associated with ataxia, confusion, and syncope”.

For `O=C1CCCc2c1sc(Nc1ccc(I)cc1F)c2C(=O)NOCCO` [Compound 4.029], the IC50 (MEK1; Table 10, compounds of formula (IV), Example 2) was no more than 0.5 µM, the IC50 (MAP2K1 (MEK1)) was no more than 0.15 µM and the “suppression of p-ERK in human nevus sebaceous explants” value (p-ERK; [2]) was “suppression of p-ERK”.

In the case of `Cn1c(Nc2ccc(I)cc2F)c(C(=O)NOCCO)c2cccnc21` [Compound 2.003], the “suppression of p-ERK in human nevus sebaceous explants” value (p-ERK; FIG. 5, 0.01% by weight compound, 1.5% hydroxypropyl cellulose in base formulation, 4 hours) is reported as “suppression of p-ERK”, the “dose response in suppression of p-ERK in human nevus sebaceous explants” value (p-ERK; FIG. 6, 0.01%, 0.15% or 1.00% by weight compound, 4 hours) is reported as “dose response” and the “suppression of p-ERK in human nevus sebaceous explants” value (p-ERK; [2]) is reported as “suppression of p-ERK”.
